Among the data in ChEMBL document CHEMBL3045806, “Antimicrobial, analgesic, DPPH scavenging activities and molecular docking study of some 1,3,5-triaryl-2-pyrazolines” (2012) are zone of inhibition, MIC and Activity values, retold here.

Common to all, as to format: functional
The test system of assay [1] is Aspergillus niger. The experiment in a line: Antimicrobial activity against Aspergillus niger at 40 ug/ml after 72 hr by agar well diffusion method. The note with it: read-out: IZ. A general note: In agar diffusion tests the substance spreads into inoculated agar from a disc or well.
Assay [2] deals with Aspergillus niger. The assay can be described thus: Antimicrobial activity against Aspergillus niger after 24 hr by micro dilution method.
Assay [3] has as its system Streptococcus pyogenes. The assay can be described thus: Antimicrobial activity against Streptococcus pyogenes after 24 hr by micro dilution method.
In assay [4] the test system is Bacillus subtilis. The assay can be described thus: Antimicrobial activity against Bacillus subtilis at 40 ug/ml after 24 hr by agar well diffusion method. The note with it: read-out: IZ.
For assay [5], the system named is Klebsiella pneumoniae. The assay can be described thus: Antimicrobial activity against Klebsiella pneumoniae at 40 ug/ml after 24 hr by agar well diffusion method. The following applies: read-out: IZ.
Assay [6] has as its system Pseudomonas aeruginosa. The assay can be described thus: Antimicrobial activity against Pseudomonas aeruginosa after 24 hr by micro dilution method.
The test system of assay [7] is Streptococcus pyogenes. The assay can be described thus: Antimicrobial activity against Streptococcus pyogenes at 40 ug/ml after 24 hr by agar well diffusion method. The note with it: read-out: IZ.
In assay [8] the test system is Mus musculus. The assay can be described thus: Analgesic activity in Mus musculus Swiss albino (mouse) assessed as protection against acetic acid-induced writhing at 100 mg/kg, po administered 1 hr prior challenge measured after 5 min of challenge for 20 min. Background: Writhing tests count abdominal constrictions after an irritant is injected.
In assay [9] the test system is Pseudomonas aeruginosa. The experiment in a line: Antimicrobial activity against Pseudomonas aeruginosa at 40 ug/ml after 24 hr by agar well diffusion method. The note with it: read-out: IZ.
Assay [10] deals with Bacillus subtilis. The assay can be described thus: Antimicrobial activity against Bacillus subtilis after 24 hr by micro dilution method.
Assay [11] in a line: Antioxidant activity assessed as DPPH scavenging activity at 10 ug/ml after 30 min by UV-visible spectrophotometry.
The test system of assay [12] is Candida albicans. The assay can be described thus: Antimicrobial activity against Candida albicans at 40 ug/ml after 72 hr by agar well diffusion method. The note with it: read-out: IZ.
Assay [13] has as its system Candida albicans. The assay can be described thus: Antimicrobial activity against Candida albicans after 24 hr by micro dilution method.
The test system of assay [14] is Klebsiella pneumoniae. The assay can be described thus: Antimicrobial activity against Klebsiella pneumoniae after 24 hr by micro dilution method.

In brackets after ≈: the same amount, converted by molar mass.

The term MIC denotes the lowest concentration found to suppress growth. Low values mean greater potency, high ones weaker potency. Regarding `Clc1ccc(C2=NN(c3ccccc3)C(c3ccc(Cl)cc3)C2)cc1` (stereo unspecified), the zone of inhibition at 40 µg/mL in assay [1] was found to be 22 mm; in assay [4] it was 22 mm; in assay [5], 20 mm; in [7] it was 24 mm; in assay [9] it was 21 mm; in assay [12], 21 mm. In addition, the MIC in assay [2], in assay [3], in assay [6], in assay [10], in [13] and in assay [14] was 30 µg/mL (≈ 81.7 µM) throughout. Besides, the Activity came to 50% in assay [8] and 31.8% in assay [11].

Regarding `Fc1ccc(C2=NN(c3ccccc3)C(c3ccc(F)cc3)C2)cc1` (stereo unspecified), the zone of inhibition at 40 µg/mL in assay [1] is 20 mm; in assay [4], 21 mm; in assay [5] it was 22 mm; in assay [7], 23 mm; in [9], 20 mm; in assay [12], 20 mm. For the same compound, the minimum inhibitory concentration (MIC) in assay [2] was 40 µg/mL (≈ 120 µM); in assay [3], 30 µg/mL (≈ 89.7 µM); in assay [6], 40 µg/mL (≈ 120 µM); in assay [10], 30 µg/mL (≈ 89.7 µM); in [13], 40 µg/mL (≈ 120 µM); in assay [14], 30 µg/mL (≈ 89.7 µM). The Activity in assay [8] was 49.65%; in [11], 51.2%.

Consider `c1ccc(-c2ccc(C3=NN(c4ccccc4)C(c4ccc(-c5ccccc5)cc4)C3)cc2)cc1` (stereo unspecified), for which the zone of inhibition at 40 µg/mL amounted to 22 mm in assay [1]; 23 mm in [4]; 23 mm in assay [5]; 21 mm in assay [7]; 22 mm in assay [9]; 21 mm in [12]. Besides, the MIC in assay [2] is 40 µg/mL (≈ 88.8 µM); in assay [3] it was 40 µg/mL (≈ 88.8 µM); in [6], 30 µg/mL (≈ 66.6 µM); in [10], 40 µg/mL (≈ 88.8 µM); in assay [13] it was 40 µg/mL (≈ 88.8 µM); in assay [14] it was 30 µg/mL (≈ 66.6 µM). Besides, the Activity in assay [8] is 53.1%; in assay [11] it was 18.2%.

`Brc1ccc(C2=NN(c3ccccc3)C(c3ccc(Br)cc3)C2)cc1` (stereo unspecified): the zone of inhibition at 40 µg/mL in [1] is 20 mm; in assay [4], 23 mm; in assay [5] it was 21 mm; in [7] it was 21 mm; in assay [9], 22 mm; in [12], 20 mm. The MIC in assay [2] was 40 µg/mL (≈ 87.7 µM); in assay [3] it was 40 µg/mL (≈ 87.7 µM); in assay [6], 30 µg/mL (≈ 65.8 µM); in [10], 40 µg/mL (≈ 87.7 µM); in assay [13], 20 µg/mL (≈ 43.8 µM); in assay [14], 40 µg/mL (≈ 87.7 µM). Further, the Activity in assay [8] is 53.75%; in [11], 40.3%.

With `OC(Cn1cncn1)(Cn1cncn1)c1ccc(F)cc1F` [FLUCONAZOLE], the zone of inhibition at 40 µg/mL in [1] was 24 mm; in [12] it was 23 mm.

`COc1ccc(C2=NN(c3ccccc3)C(c3ccc(OC)cc3)C2)cc1` (stereo unspecified): the zone of inhibition at 40 µg/mL in assay [1] was determined as 21 mm; in [4], 21 mm; in assay [5], 22 mm; in [7], 23 mm; in [9], 24 mm; in [12], 20 mm. Besides, the MIC in assay [2] was 30 µg/mL (≈ 83.7 µM); in assay [3], 40 µg/mL (≈ 112 µM); in assay [6], 30 µg/mL (≈ 83.7 µM); in assay [10], 40 µg/mL (≈ 112 µM); in assay [13], 40 µg/mL (≈ 112 µM); in [14], 30 µg/mL (≈ 83.7 µM). Besides, the Activity is 58.74% in assay [8] and 39.6% in assay [11].

As to `c1ccc(C2=NN(c3ccccc3)C(c3ccccc3)C2)cc1` (stereo unspecified), the zone of inhibition at 40 µg/mL is 23 mm in [1]; 23 mm in assay [4]; 23 mm in [5]; 23 mm in assay [7]; 22 mm in assay [9]; 21 mm in assay [12]. Further, the minimum inhibitory concentration (MIC) was determined as 30 µg/mL (≈ 101 µM) in assay [2]; 40 µg/mL (≈ 134 µM) in [3]; 30 µg/mL (≈ 101 µM) in assay [6]; 40 µg/mL (≈ 134 µM) in assay [10]; 30 µg/mL (≈ 101 µM) in assay [13]; 40 µg/mL (≈ 134 µM) in [14]. In addition, the Activity in [8] was determined as 57.8%; in assay [11], 23.1%.

`CC(=O)Oc1ccccc1C(=O)O` [ASPIRIN]: in assay [8], the Activity turned out to be 58.25%.

As for `O=C1O[C@H]([C@@H](O)CO)C(O)=C1O`, the Activity in assay [11] amounted to 69.2%.

Consider `Cc1ccc(C2=NN(c3ccccc3)C(c3ccc(C)cc3)C2)cc1` (stereo unspecified), for which the zone of inhibition at 40 µg/mL in [1] stood at 24 mm; in [4], 20 mm; in assay [5], 24 mm; in assay [7], 22 mm; in [9] it was 23 mm; in [12], 22 mm. Further, the minimum inhibitory concentration (MIC) in assay [2] came to 40 µg/mL (≈ 123 µM); in assay [3] it was 20 µg/mL (≈ 61.3 µM); in assay [6], 40 µg/mL (≈ 123 µM); in assay [10], 30 µg/mL (≈ 91.9 µM); in assay [13], 30 µg/mL (≈ 91.9 µM); in assay [14], 30 µg/mL (≈ 91.9 µM). In addition, the Activity in assay [8] turned out to be 58.16%; in assay [11] it was 22.4%.

As to `O=C(O)c1cn(C2CC2)c2cc(N3CCNCC3)c(F)cc2c1=O` [CIPROFLOXACIN], the zone of inhibition at 40 µg/mL in [4], in assay [5], in assay [7] and in [9] was 24 mm each time.
